The numbers were not newly measured in patent US6352974B1, “Oral calcitonin pharmaceutical compositions and methods of making the same” (Eurand International S.p.A., priority 1996, dated 2002), which cites them from elsewhere.

The conditions of this data set: typical activity.

For the substance Salmon calcitonin, the activity entry is recorded as “up to 6500 IU/mg”.
